One block for each compound: values may come before it.
What was measured:
HCT-116 = assay: Inhibition of human HCT116 cells; format: functional, cell-based
HT-1080 = assay: Inhibition of human HT1080 cells; format: functional, cell-based
Histone deacetylase [1] = assay: Inhibition of HDAC from human K562 cells; format: cell-based
Histone deacetylase [2] = assay: Inhibition of HDAC from human HeLa cells; format: cell-based
Histone deacetylase 1 [3] = target: T1, Histone deacetylase 1 (Homo sapiens, UniProt Q13547); assay: Inhibition of HDAC1 from human HeLa cells; format: cell-based
T1 sequence (Q13547 whole entry): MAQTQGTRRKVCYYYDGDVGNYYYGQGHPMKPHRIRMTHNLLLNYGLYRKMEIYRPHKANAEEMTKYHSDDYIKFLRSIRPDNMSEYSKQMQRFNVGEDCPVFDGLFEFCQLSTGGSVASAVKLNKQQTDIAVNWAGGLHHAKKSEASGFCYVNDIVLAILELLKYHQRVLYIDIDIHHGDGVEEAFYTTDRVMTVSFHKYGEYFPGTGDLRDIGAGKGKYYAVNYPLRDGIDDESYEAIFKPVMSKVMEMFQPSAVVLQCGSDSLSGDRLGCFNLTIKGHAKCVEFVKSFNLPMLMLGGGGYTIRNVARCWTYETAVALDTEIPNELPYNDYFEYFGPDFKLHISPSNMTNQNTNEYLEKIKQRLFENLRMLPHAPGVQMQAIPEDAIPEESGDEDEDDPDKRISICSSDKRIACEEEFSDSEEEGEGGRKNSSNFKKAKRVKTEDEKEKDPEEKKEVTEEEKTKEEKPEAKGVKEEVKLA

Histone deacetylase 1 [4] = target: T1, Histone deacetylase 1
Description: Inhibition of human HDAC1

MKN-45 = assay: Antiproliferative activity against human MKN45 cells; format: functional, cell-based

Structure (SMILES): O=C(CCCCCCc1cnc(-c2ccc(OC(F)(F)F)cc2)o1)NO
IC50 (HT-1080): 5140 nM | IC50 (Histone deacetylase [1]): 89 nM

Structure (SMILES): O=C(CCCCCNC(=O)Nc1cccc(-c2nc3cc(C(F)(F)F)ccc3o2)c1)NO
IC50 (Histone deacetylase [2]; read-out: IC50): 19 nM

Structure (SMILES): CC(=O)CCCCC[C@H](NC(=O)CCN1CCCCC1)C(=O)NCCc1c(-c2ccccc2)[nH]c2ccccc12
IC50 (Histone deacetylase 1 [3]): < 390 nM | IC50 (Histone deacetylase 1 [4]): 190 nM

Structure (SMILES): O=C(CCCCCCc1cnc(-c2ccc(F)cc2)o1)NO
IC50 (Histone deacetylase [1]): 23 nM

Structure (SMILES): CC(=O)CCCCC[C@H](NC1CCCCN1C)C(=O)Nc1cccc(-c2ccccc2)c1 (stereo not given in full)
IC50 (Histone deacetylase 1 [3]): 500 nM | IC50 (Histone deacetylase 1 [4]): 79 nM

Structure (SMILES): O=C(NO)c1ccc(-c2ccccn2)s1
IC50 (Histone deacetylase [2]): 243 nM

Structure (SMILES): O=C(CCCCCCc1nc(-c2ccc(C(F)(F)F)cc2)cs1)NO
IC50 (HT-1080): 2390 nM | IC50 (Histone deacetylase [1]): 42 nM

Structure (SMILES): O=C(CCCCCCc1nc(-c2ccc(Br)cc2)cs1)NO
IC50 (HT-1080): 5680 nM | IC50 (Histone deacetylase [1]): 8.5 nM

Structure (SMILES): O=C(CCCCCCc1ncc(-c2ccc(-c3ccc(Cl)cc3)cc2)o1)NO
IC50 (HT-1080): 660 nM | IC50 (Histone deacetylase [1]): 6.8 nM

Structure (SMILES): O=C(CCCCCCc1cnc(-c2ccccc2)o1)NO
IC50 (Histone deacetylase [1]): 13 nM

Structure (SMILES): O=C(CCCCCCc1ncc(-c2ccccc2)o1)NO
IC50 (HT-1080): 8410 nM | IC50 (Histone deacetylase [1]): 9.8 nM

Structure (SMILES): O=C(CCCCS)Nc1ccccc1
IC50 (Histone deacetylase [2]; read-out: IC50): 6200 nM

Structure (SMILES): O=C(CCCCCCc1nc(-c2cccc(Br)c2)cs1)NO
IC50 (HT-1080): 10100 nM | IC50 (Histone deacetylase [1]): 5.8 nM

Structure (SMILES): CC(=O)CCCCC[C@H](NC(=O)C1CCN(C)C1)C(=O)NCCc1c(-c2ccccc2)[nH]c2ccccc12 (stereo not given in full)
IC50 (Histone deacetylase 1 [3]): 2000 nM

Structure (SMILES): CC(C)[C@H]1NC(=O)[C@@H](C)[C@@H](C/C=C\CCC(N)=O)NC(=O)[C@@H](Cc2ccccc2)NC(=O)[C@@H](C)NC1=O [AZUMAMIDE A]
IC50 (Histone deacetylase [1]): 45 nM

Structure (SMILES): CC(=O)SCCCCCCC(=O)Nc1ccccc1
IC50 (Histone deacetylase [2]; read-out: IC50): 7100 nM

Structure (SMILES): CC(=O)CCCCC[C@H](NC(=O)c1cncs1)C(=O)NCCc1c(-c2ccccc2)[nH]c2ccccc12
IC50 (Histone deacetylase 1 [3]): 3000 nM

Structure (SMILES): O=C(CCCCCNC(=O)Nc1cccc(-c2nc3cc(F)ccc3o2)c1)NO
IC50 (Histone deacetylase [2]; read-out: IC50): 8 nM

Structure (SMILES): COc1ccc(-c2nc3cc(Cl)cc(Cl)c3o2)cc1NC(=O)NCCCCCC(=O)NO
IC50 (Histone deacetylase [2]; read-out: IC50): 128 nM

Structure (SMILES): O=C(CCCCCCc1nc(-c2ccc(OC(F)(F)F)cc2)cs1)NO
IC50 (Histone deacetylase [1]): 74 nM

Structure (SMILES): CC(=O)CCCCC[C@H](NC(=O)C1CCCCN1C)C(=O)NCCc1c(-c2ccccc2)[nH]c2ccccc12 (stereo not given in full)
IC50 (Histone deacetylase 1 [3]): 2500 nM

Results, then the compound that gave them:

IC50 (HCT-116): 2000 nM
Structure (SMILES): COc1cc(CNc2ccc(/C=C/C(=O)Nc3ccccc3N)cn2)cc(OC)c1OC

IC50 (HCT-116): 12000 nM
Structure (SMILES): COc1ccc(NCc2ccc(/C=C/C(=O)Nc3ccccc3N)cc2)cc1

IC50 (Histone deacetylase [2]; read-out: IC50): 146 nM
Structure (SMILES): COc1ccc(-c2nc3cc(Cl)ccc3o2)cc1NC(=O)NCCCCCC(=O)NO

IC50 (MKN-45): 4500 nM
Structure (SMILES): COc1ccc(CNCCn2ccc(-c3ccc(C(=O)NO)s3)n2)cc1OC

IC50 (Histone deacetylase 1 [3]): < 390 nM | IC50 (Histone deacetylase 1 [4]): 25 nM
Structure (SMILES): COc1ccc2[nH]c(C)c(CN[C@@H](CCCCCC(C)=O)C(=O)Nc3nc(-c4ccccc4)cs3)c2c1

IC50 (Histone deacetylase [2]; read-out: IC50): 12 nM
Structure (SMILES): COc1ccc2oc(-c3cccc(NC(=O)NCCCCCC(=O)NO)c3)nc2c1

IC50 (MKN-45): 370 nM
Structure (SMILES): Cn1c(CNCCn2ccc(-c3ccc(C(=O)NO)s3)n2)cc2ccccc21

IC50 (Histone deacetylase [1]): > 5000 nM
Structure (SMILES): CN(C)C(=O)C(=O)CCCCCCOc1ccc(-c2ccccc2)cc1

IC50 (MKN-45): 1800 nM
Structure (SMILES): O=C(NO)c1ccc(-c2ccn(CCNCc3ccccc3)n2)s1

IC50 (Histone deacetylase 1 [4]): 1070 nM
Structure (SMILES): O=C(NO)c1cc2cc(NC(=O)c3cccc4ccccc34)ccc2s1

IC50 (Histone deacetylase [1]): 109 nM
Structure (SMILES): COC(=O)C(=O)CCCCCCCOc1ccc(-c2ccccc2)cc1

IC50 (Histone deacetylase [2]; read-out: IC50): 400 nM
Structure (SMILES): COc1ccc(-c2nc3cc(-c4ccccc4)ccc3o2)cc1NC(=O)NCCCCCC(=O)NO

IC50 (Histone deacetylase [2]; read-out: IC50): 137 nM
Structure (SMILES): COc1ccc(S(=O)(=O)Nc2cccc(/C=C/C(=O)NO)c2)cc1OC

IC50 (MKN-45): 2190 nM
Structure (SMILES): O=C(NO)c1ccc(-c2ccn(CCCc3ccccc3)n2)s1

IC50 (HCT-116): 600 nM
Structure (SMILES): COc1ccc(CNc2ccc(C(=O)Nc3ccccc3N)cc2)cc1OC

IC50 (HCT-116): 3000 nM
Structure (SMILES): COc1ccc(CNc2ccc(/C=C/C(=O)Nc3ccccc3N)cn2)cc1

IC50 (MKN-45): 280 nM
Structure (SMILES): O=C(NO)c1ccc(-c2ccn(CCNCc3ccc4[nH]ccc4c3)n2)s1

IC50 (Histone deacetylase [1]): > 50000 nM
Structure (SMILES): CN(C)CCNC(=O)C(=O)CCCCCCOc1ccc(-c2ccccc2)cc1

IC50 (Histone deacetylase [2]; read-out: IC50): 29 nM
Structure (SMILES): O=C(/C=C/c1ccc(S(=O)(=O)Nc2ccccc2)cc1)NO

IC50 (MKN-45): 2910 nM
Structure (SMILES): O=C(NO)c1ccc(-c2ccn(CCc3ccccc3)n2)s1

IC50 (HCT-116): 800 nM
Structure (SMILES): COc1ccc(CCNc2ccc(C(=O)Nc3ccccc3N)cn2)cc1

IC50 (Histone deacetylase [1]): 82 nM
Structure (SMILES): COC(=O)C(=O)CCCCCOc1ccc(-c2ccccc2)cc1

IC50 (MKN-45): 840 nM
Structure (SMILES): O=C(Cn1ccc(-c2ccc(C(=O)NO)s2)n1)Nc1ccccc1

IC50 (MKN-45): 120 nM
Structure (SMILES): O=C(NO)c1ccc(-c2ccn(CCNCc3ccc(-c4ccccn4)cc3)n2)s1

IC50 (Histone deacetylase 1 [4]): 79 nM
Structure (SMILES): O=C(Nc1ccc2cc(C(=O)NO)sc2c1)c1ccc2ccccc2c1

IC50 (Histone deacetylase [2]; read-out: IC50): 106 nM
Structure (SMILES): O=C(/C=C/c1cccc(NS(=O)(=O)c2ccc(-c3ccccc3)cc2)c1)NO

IC50 (MKN-45): 550 nM
Structure (SMILES): COc1ccc(CNCCn2ccc(-c3ccc(C(=O)NO)s3)n2)cc1

IC50 (HCT-116): 70 nM
Structure (SMILES): Nc1ccccc1NC(=O)c1ccc(/C=C/C(=O)NCc2cccnc2)cc1

IC50 (HCT-116): 100 nM
Structure (SMILES): COc1cc(NC/C=C/c2ccc(C(=O)Nc3ccccc3N)cc2)cc(OC)c1OC

IC50 (Histone deacetylase [1]): 3700 nM
Structure (SMILES): O=C(O)C(=O)CCCCCCOc1ccc(-c2ccccc2)cc1

— ChEMBL document CHEMBL1142268, “Histone deacetylase inhibitors: from bench to clinic” (J Med Chem, 2008)
